Test results taken from US9469633B2 (dated 2016).

| melting point [°C] | Structure (SMILES) |
| --- | --- |
| 138 to 141 | O=C1C[C@](c2cc(Cl)cc(Cl)c2)(C(F)(F)F)C(=O)N1 |
| 72 to 76 | O=C(/C=C(\c1cc(Cl)cc(Cl)c1)C(F)(F)F)c1ccco1 |
